Data published in ChEMBL document CHEMBL1156406, “New Xenia diterpenoids from the Indonesian soft coral Xenia sp” (J Nat Prod, 2002).

Tests used:
Assay type in all cases: functional, cell-based
[1] = test system: HT-29; experiment: Cytotoxicity against human HT-29 cells
[2] = test system: P388; experiment: Cytotoxicity against mouse P388 cells
[3] = test system: SK-MEL-28; experiment: Cytotoxicity against human SK-MEL-28 cells
[4] = test system: A549; experiment: Cytotoxicity against human A549 cells

Measured: IC50

C=C1CC[C@@H]2/C(=C/C=C/C(C)(C)O)C(=O)OC[C@H]2C(=C)CC[C@@H]1O
> 1 µg/mL: all assays above

C=C1CC[C@@H]2/C(=C/C=C/C(C)(C)O)C(=O)OC[C@H]2C(=C)C[C@@H](O)[C@@H]1O
> 1 µg/mL: all assays above

C=C1C[C@@H](O)C2OC2(C)CC[C@@H]2/C(=C/C=C/C(C)(C)O)C(=O)OC[C@@H]12 (stereo partly specified)
> 1 µg/mL: all assays above

C=C1C[C@@H](O)/C=C(\C)CC[C@@H]2/C(=C/C=C/C(C)(C)O)C(=O)OC[C@@H]12 [ISOXENIOLIDE A]
> 1 µg/mL: all assays above
